# Assay results reported in patent publication US12383196B2, “Treatment of depression using machine learning” (The Board of Trustees of the Leland Stanford Junior …, priority 2018, dated 2025).
# Tested on: medication-free depressed outpatients
# Test: EMBARC placebo-controlled randomized clinical trial, treatment response on HAMD17
# Format: in vivo, human
# Conditions: for response rate (≥50% reduction in symptoms): sertraline arm, 8 weeks, 50-200 mg
# Text: Data were drawn from four studies. Establishment of the treatment-predictive rsEEG signature was accomplished with data from the Establishing Moderators and Biosignatures of Antidepressant Response in Clinic Care (EMBARC) study^21. EMBARC is the largest neuroimaging-coupled placebo-controlled randomized clinical trial (RCT) in depression to date and involved randomization of 309 medication-free depressed outpatients to receive either the selective serotonin reuptake inhibitor (SSRI) sertraline or placebo for eight weeks (FIG. 8). Of these, 228 had high-quality rsEEG data. We then compared the predictive utility of this algorithm against conventional machine learning approaches on the EEG data as well as a predictive model built on clinical data alone. The generalizability of the antidepressant-predictive signature was then tested in a second independent sample of depressed patients (N=72), for whom we had historical information about treatment response during the current depressive episode. A third independent sample of depressed patients (N=24) was used to assess two features of the treatment-predictive rsEEG signature: convergent validity and neurobiological significance. […] We also tested in the third sample whether regions that were prominent in the rsEEG signature reflected individual differences in cortical responsivity, as directly assessed through single pulse transcranial magnetic stimulation (TMS) during concurrent EEG recording. […]
# To simply visualize how the SELSER predictions in FIG. 2A could be used for treatment stratification, we partitioned the patients in each arm by applying an arbitrary median split on the cross-validated predicted HAMD17 score changes derived from the sertraline alpha REO model. We then calculated the rates of treatment response (≥50% reduction in symptoms) for the portion of patients above the median (“high”) and below the median (“low”), respectively, based on the model-predicted HAMD17 change scores (FIG. 2E). […]
compound,measurement,setting,value
CN[C@H]1CC[C@@H](c2ccc(Cl)c(Cl)c2)c2ccccc21 [sertraline],efficacy versus placebo,only for patients at the higher range of predicted HAMD17 score changes,superior to placebo
same,response rate (≥50% reduction in symptoms),"high group (above median of cross-validated predicted HAMD17 score change, sertraline alpha REO model)",65%
same,response rate (≥50% reduction in symptoms),"low group (below median of cross-validated predicted HAMD17 score change, sertraline alpha REO model)",20%
